Key:
[1] = target: T1, purified bovine adrenal G6PDH (Bos taurus, UniProt F1MMK2); test: Inhibition of purified bovine adrenal G6PDH; assay type: biochemical; conditions: for G6PDH Inhibition relative to DHEA: Table 3, DHEA = 1×; for inhibition at 10 µM / inhibition at 1 µM / inhibition at 0.1 µM: read-out: Percent Inhibition (G6PDH)
T1 construct: full-length, wild type, no tag
Source text: The compounds listed below are screened as inhibitors of purified bovine adrenal G6PDH activity as one predictor of cancer preventive action. The assay for testing the inhibition of purified bovine adrenal G6PDH is according to the procedure by Oertel, G. W. and Rebelein, I. in Biochem. Biophys. Acta, 184, 459-460 (1969). The results are given below in Table I:
Both of the above tests, i.e., the inhibition of mammalian glucose-6-phosphate dehydrogenase (G6PDH) and the inhibition of tumor promoter (TPA) stimulation of ^3 H-thymidine incorporation in mouse epidermis are recognized as indicators of cancer prophylactic activity. The following Table compares the efficacy of representative compounds of the present invention in these two tests with that of DHEA: […]

[2] = tested on: TPA (Tumor Promoter) Stimulation of Mouse Epidermal DNA; test: Inhibition of TPA stimulation of mouse epidermal DNA synthesis (3H-thymidine incorporation), oral; assay type: in vivo, mouse (ICR male); conditions: Table 3; DHEA = 1×; oral
Source text: Synthesis rate by orally administered steroids.
The inhibition of tumor promoter stimulation of mouse epidermal DNA synthesis rate by steroids may also contribute to cancer preventive activity. The following assay is used:
ICR male mice (7-9 weeks old) were shaved on the back 1-2 days before use. Only mice showing no hair regrowth were used. Animals were orally intubated with a particular steroid suspended by homogenization in sesame oil or with sesame oil alone (controls). One hour later TPA (10 μg in 0.2 ml of acetone) or acetone vehicle was applied topically to the shaved skin. Twenty hours later, mice were injected i.p. with 60 μCi of ^3 H-thymidine 20 minutes before sacrifice. The animals were killed by cervical dislocation and the residual hair was removed with a depilatory agent. Epidermal scrapings were prepared according to the procedures of Hennings et al. (Cancer Res. 28, 53, 1968), homogenized in distilled water at 4° C., and the macromolecules precipitated with 0.4N trichloroacetic acid (TCA). Following 6 washes with absolute ethanol at room temperature, the nucleic acids were hydrolyzed with 0.5N TCA at 70° C. for 5 minutes. The hydrolysate (0.2 ml aliquots) were counted in an Intertechnique scintillation counter and assayed for DNA by the diphenylamine reaction.
The data are expressed as counts per minute (cpm) of tritium per μg of DNA.
A similar oral dose-response experiment with compound 16 and DHEA was performed.
Both of the above tests, i.e., the inhibition of mammalian glucose-6-phosphate dehydrogenase (G6PDH) and the inhibition of tumor promoter (TPA) stimulation of ^3 H-thymidine incorporation in mouse epidermis are recognized as indicators of cancer prophylactic activity. The following Table compares the efficacy of representative compounds of the present invention in these two tests with that of DHEA:
(§1) Male ICR mice were orally intubated with steroid suspended in sesame oil (0.5 ml/mouse) at the indicated dose. Mice not receiving steroid were given sesame oil alone. One hour later mice received topical application of TPA and 20 hours later the rate of ^3 H-thymidine incorporation into the epidermis was determined as described in Table 4.
as §1, with “TPA,” for “TPA”

[3] = Anti-obesity test (body weight, food consumption); assay type: in vivo, mouse (male A/J); conditions: Table 14; DHEA = 1×
Protocol: Male A/J mice (5 weeks old) were obtained from the Jackson Laboratory and were housed in polycarbonate cages (5 mice/cage) in animal quarters maintained at 24°±1° C. with 12 hours of light and 12 hours of darkness each day. One week after arrival, the mice were placed on a chow diet containing varying concentrations of DHEA or other steroid. Animals were weighed weekly; food consumption was determined weekly by subtracting the amount of food remaining in the cage from the amount added.
Male A/J (5 weeks old) were obtained from the Jackson Laboratory and were housed in polycarbonate cages (5 mice/cage) in animal quarters maintained at 24°±1° C. with 12 hours of light and 12 hours of darkness each day. One week after arrival, the mice were placed on a diet containing either DHEA, 19, or without steroid. Animals were weighed weekly. The concentration of DHEA or 19 used in the food was 0.54%.
Male A/J mice (5 weeks old) were obtained from the Jackson Laboratory and were housed in polycarbonate cages (5 mice/cage) in animal quarters maintained at 24°±1° C. with 12 hours of light and 12 hours of darkness each day. One week after arrival, the mice were placed on a show diet containing DHEA, 16, or 21 at 0.36%. Animals were weighed weekly.

C57BL/KsJ-db/db mice = test: Anti-hyperglycemic activity (blood glucose); assay type: in vivo, mouse (C57BL/KsJ-db/db); conditions: Table 15; DHEA = 1×
Protocol: C57BL/KsJ-db/db 8 week old female mice were obtained and housed in polycarbonate cages in animal quarters maintained at 24° C. with 12 h of light and 12 h of darkness each day.
Mice were placed on a control chow or a chow diet containing either 0.4% DHEA or 0.2% of compound 16.
For determination of blood glucose levels, mice were bled from the orbital sinus using a heparinized capillary tube. 0.2 ml of blood was added to 1.8 ml of water to hemolyze the blood and glucose concentration was determined using the glucose oxidase assay.

T1 sequence (F1MMK2 31-70): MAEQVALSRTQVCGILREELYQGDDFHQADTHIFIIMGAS
T1 sequence (F1MMK2 101-575): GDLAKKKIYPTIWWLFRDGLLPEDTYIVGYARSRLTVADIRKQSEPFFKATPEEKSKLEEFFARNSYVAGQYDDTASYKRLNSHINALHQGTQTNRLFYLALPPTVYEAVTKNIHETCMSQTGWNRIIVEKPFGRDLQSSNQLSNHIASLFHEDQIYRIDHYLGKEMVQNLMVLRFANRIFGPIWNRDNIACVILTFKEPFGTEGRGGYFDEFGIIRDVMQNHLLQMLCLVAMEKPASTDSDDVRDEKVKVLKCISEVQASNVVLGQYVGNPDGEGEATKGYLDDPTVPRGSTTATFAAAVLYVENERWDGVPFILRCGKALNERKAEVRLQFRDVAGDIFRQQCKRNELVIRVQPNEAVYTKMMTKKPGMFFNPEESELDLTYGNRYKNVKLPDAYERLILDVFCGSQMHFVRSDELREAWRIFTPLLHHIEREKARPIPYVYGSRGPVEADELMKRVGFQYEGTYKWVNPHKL

Compound: C[C@@H]1C[C@@]2(C)C(=CC[C@@H]3[C@@H]2CC[C@]2(C)C(=O)CC[C@@H]32)C[C@H]1O
- G6PDH Inhibition relative to DHEA [1]: ~ 1 ×

Compound: C[C@]12CC[C@H](O)C[C@@H]1CC[C@@H]1[C@@H]2CC[C@]2(C)C(=O)[C@H](Br)C[C@@H]12 [Compound 4]
- inhibition at 10 µM ([1]; Conc. 10 μm): 90%

Compound: C[C@]12CC[C@H](O)CC1=CC[C@@H]1[C@@H]2CC[C@]2(C)C(=O)[C@H](Br)C[C@@H]12 [Compound 5]
- inhibition at 10 µM ([1]; Conc. 10 μm): 74%

Compound: C[C@]12CC[C@H](O)C[C@@H]1CC[C@@H]1[C@@H]2CC[C@]2(C)C(=O)[C@H](Cl)C[C@@H]12 [Compound 6]
- inhibition at 10 µM ([1]; Conc. 10 μm): 72%

Compound: C[C@]12CC[C@H](O)C[C@@H]1CC[C@@H]1[C@@H]2CC[C@]2(C)C(=O)[C@H](I)C[C@@H]12 [Compound 7]
- inhibition at 10 µM ([1]; Conc. 10 μm): 51%

Compound: C[C@]12CC[C@H](O)C[C@@H]1CC[C@@H]1[C@@H]2CC[C@]2(C)C(=O)[C@H](F)C[C@@H]12 [Compound 8]
- inhibition at 10 µM ([1]; Conc. 10 μm): 66%

Compound: C[C@]12CC[C@H](F)CC1=CC[C@@H]1[C@@H]2CC[C@]2(C)C(=O)CC[C@@H]12 [Compound 9]
- inhibition at 10 µM ([1]; Conc. 10 μm): 22%

Compound: C[C@]12CC[C@@H](O)C[C@@H]1CC[C@@H]1[C@@H]2CC[C@]2(C)C(=O)CC[C@@H]12 [Compound 10]
- inhibition at 10 µM ([1]; Conc. 10 μm): 35%

Compound: C[C@@H]1[C@H](O)CC[C@@]2(C)[C@H]1CC[C@@H]1[C@@H]2CC[C@]2(C)C(=O)CC[C@@H]12 [Compound 11]
- inhibition at 10 µM ([1]; Conc. 10 μm): 35%

Compound: C[C@H]1C2=CC[C@@H]3[C@H](CC[C@]4(C)C(=O)CC[C@@H]34)[C@@]2(C)CC[C@@H]1O [Compound 11a]
- inhibition at 1 µM ([1]; Conc. 1 μm): 72%
- inhibition at 10 µM ([1]; Conc. 10 μm): 87%

Compound: CC1(C)C2=CC[C@@H]3[C@H](CC[C@]4(C)C(=O)CC[C@@H]34)[C@@]2(C)CC[C@@H]1O [Compound 12]
- inhibition at 10 µM ([1]; Conc. 10 μm): 48%

Compound: CC[C@H]1CC[C@@]2(C)C(=CC[C@@H]3[C@@H]2CC[C@]2(C)C(=O)CC[C@@H]32)C1 [Compound 13]
- inhibition at 0.1 µM ([1]; Conc. 0.1 μm): 58%
- inhibition at 1 µM ([1]; Conc. 1 μm): 55%
- inhibition at 10 µM ([1]; Conc. 10 μm): 73%

Compound: C[C@]12CCCCC1=CC[C@@H]1[C@@H]2CC[C@]2(C)C(=O)CC[C@@H]12 [Compound 14]
- inhibition at 1 µM ([1]; Conc. 1 μm): 30%
- inhibition at 10 µM ([1]; Conc. 10 μm): 75%

Compound: CCCC[C@H]1CC[C@@]2(C)C(=CC[C@@H]3[C@@H]2CC[C@]2(C)C(=O)CC[C@@H]32)C1 [Compound 17]
- inhibition at 0.1 µM ([1]; Conc. 0.1 μm): 49%
- inhibition at 1 µM ([1]; Conc. 1 μm): 45%
- inhibition at 10 µM ([1]; Conc. 10 μm): 60%

Compound: CC1=C2C[C@@H](O)CC[C@]2(C)[C@H]2CC[C@]3(C)C(=O)CC[C@H]3[C@@H]2C1 [Compound 18]
- inhibition at 0.1 µM ([1]; Conc. 0.1 μm): 10%
- inhibition at 1 µM ([1]; Conc. 1 μm): 18%
- inhibition at 10 µM ([1]; Conc. 10 μm): 45%

Compound: C[C@H]1CC[C@@]2(C)C(=CC[C@@H]3[C@@H]2CC[C@]2(C)C(=O)[C@](C)(F)C[C@@H]32)C1 [Compound 22]
- inhibition at 1 µM ([1]; Conc. 1 μm): 53%
- inhibition at 10 µM ([1]; Conc. 10 μm): 65%

Compound: C[C@]12CC[C@H](O)C[C@@H]1CC[C@@H]1[C@@H]2CC[C@]2(C)C(=O)CC[C@@H]12 [drawing 85]
- G6PDH Inhibition relative to DHEA [1]: ~ 1.5 ×
- Inhibition of TPA Effect on Epidermis Following Oral Administration, relative to DHEA [2]: ~ 1 ×

Compound: C[C@]12CCCC[C@@H]1CC[C@@H]1[C@@H]2CC[C@]2(C)C(=O)CC[C@@H]12 [drawing 86]
- G6PDH Inhibition relative to DHEA [1]: > 2 ×
- Inhibition of TPA Effect on Epidermis Following Oral Administration, relative to DHEA [2]: ~ 1.5 ×

Compound: C[C@H]1CC[C@@]2(C)C(=CC[C@@H]3[C@@H]2CC[C@]2(C)C(=O)CC[C@@H]32)C1 [drawing 87]
- G6PDH Inhibition relative to DHEA [1]: ~ 1 ×
- Inhibition of TPA Effect on Epidermis Following Oral Administration, relative to DHEA [2]: ~ 3 ×

Compound: C[C@H]1CC[C@@]2(C)C(=CC[C@@H]3[C@@H]2CC[C@]2(C)C(=O)[C@H](C)C[C@@H]32)C1 [drawing 88]
- G6PDH Inhibition relative to DHEA [1]: ~ 0.5 ×

Compound: C[C@H]1CC[C@@]2(C)C(=CC[C@@H]3[C@@H]2CC[C@]2(C)C(=O)[C@H](O)C[C@@H]32)C1 [drawing 89]
- G6PDH Inhibition relative to DHEA [1]: ~ 2 ×
- Inhibition of TPA Effect on Epidermis Following Oral Administration, relative to DHEA [2]: 5 ×

Compound: C[C@]12CC[C@H](Cl)CC1=CC[C@@H]1[C@@H]2CC[C@]2(C)C(=O)CC[C@@H]12 [drawing 90]
- G6PDH Inhibition relative to DHEA [1]: 0.5 ×
- Inhibition of TPA Effect on Epidermis Following Oral Administration, relative to DHEA [2]: 1-1.5 ×

Compound: CC[C@H]1CC[C@@]2(C)C(=CC[C@@H]3[C@@H]2CC[C@]2(C)C(=O)CC[C@@H]32)C1 [drawing 91]
- G6PDH Inhibition relative to DHEA [1]: ~ 1.5 ×

Compound: CCCC[C@H]1CC[C@@]2(C)C(=CC[C@@H]3[C@@H]2CC[C@]2(C)C(=O)CC[C@@H]32)C1 [drawing 92]
- G6PDH Inhibition relative to DHEA [1]: ~ 2 ×

Compound: C[C@H]1CC[C@@]2(C)C(=CC[C@@H]3[C@@H]2CC[C@]2(C)C(=O)[C@H](F)C[C@@H]32)C1 [drawing 94]
- G6PDH Inhibition relative to DHEA [1]: 5-10 ×
- Inhibition of TPA Effect on Epidermis Following Oral Administration, relative to DHEA [2]: > 10 ×

Compound: C[C@]12CC[C@H](O)C[C@@H]1CC[C@@H]1[C@@H]2CC[C@]2(C)C(=O)CC[C@@H]12 [drawing 95]
- Anti-obesity Activity relative to DHEA [3]: ~ 0.5 ×

Compound: C[C@]12CCCC[C@@H]1CC[C@@H]1[C@@H]2CC[C@]2(C)C(=O)CC[C@@H]12 [drawing 96]
- Anti-obesity Activity relative to DHEA [3]: ~ 0.5 ×

Compound: C[C@H]1CC[C@@]2(C)C(=CC[C@@H]3[C@@H]2CC[C@]2(C)C(=O)CC[C@@H]32)C1 [drawing 97]
- Anti-obesity Activity relative to DHEA [3]: ~ 3 ×

Compound: C[C@H]1CC[C@@]2(C)C(=CC[C@@H]3[C@@H]2CC[C@]2(C)C(=O)[C@H](O)C[C@@H]32)C1 [drawing 98]
- Anti-obesity Activity relative to DHEA [3]: ~ 0.8 ×

Compound: C[C@H]1CC[C@@]2(C)C(=CC[C@@H]3[C@@H]2CC[C@]2(C)C(=O)[C@H](C)C[C@@H]32)C1 [drawing 99]
- Anti-obesity Activity relative to DHEA [3]: ~ 1 ×

Compound: C[C@]12CC[C@H](Cl)CC1=CC[C@@H]1[C@@H]2CC[C@]2(C)C(=O)CC[C@@H]12 [drawing 100]
- Anti-obesity Activity relative to DHEA [3]: ~ 1 ×

Compound: CC[C@H]1CC[C@@]2(C)C(=CC[C@@H]3[C@@H]2CC[C@]2(C)C(=O)CC[C@@H]32)C1 [drawing 101]
- Anti-obesity Activity relative to DHEA [3]: ~ 0.5 ×

Compound: C[C@H]1CC[C@@]2(C)C(=CC[C@@H]3[C@@H]2CC[C@]2(C)C(=O)CC[C@@H]32)C1 [drawing 102]
- Anti-diabetic Activity relative to DHEA (C57BL/KsJ-db/db mice): 3 ×

Compound: C[C@]12CC[C@H](Cl)CC1=CC[C@@H]1[C@@H]2CC[C@]2(C)C(=O)CC[C@@H]12 [drawing 103]
- Anti-diabetic Activity relative to DHEA (C57BL/KsJ-db/db mice): 1 ×

Compound: Androst-5-en-17-one [Compound 15, reference compound]
- Percent Inhibition (G6PDH) ([1]; Conc. 0.1 μm): 26%
- Percent Inhibition (G6PDH) ([1]; Conc. 1 μm): 40%
- Percent Inhibition (G6PDH) ([1]; Conc. 10 μm): 46%
